Results published in PubChem BioAssay (NCI).
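Interpolation was linear, between the two tested concentrations surrounding the appropriate level; five concentrations were tested over 48 hours in 96-well plates. GI50: concentration for 50% inhibition of growth. TGI: total growth inhibition.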

Experiments:
Test in all cases: NCI anticancer screen, dose series, 48 h
HS 578T breast = system: HS 578T breast
UACC-62 melanoma = system: UACC-62 melanoma
HCT-15 colon = system: HCT-15 colon
TK-10 renal = system: TK-10 renal
OVCAR-4 ovarian = system: OVCAR-4 ovarian
SN12C renal = system: SN12C renal
SK-MEL-5 melanoma = system: SK-MEL-5 melanoma
MCF7 breast = system: MCF7 breast
ACHN renal = system: ACHN renal
786-0 renal = system: 786-0 renal
OVCAR-5 ovarian = system: OVCAR-5 ovarian
SNB-75 CNS = system: SNB-75 CNS
COLO 205 colon = system: COLO 205 colon
A549 NSCLC = system: A549 NSCLC
HL-60(TB) leukemia = system: HL-60(TB) leukemia
HT29 colon = system: HT29 colon
CAKI-1 renal = system: CAKI-1 renal
IGROV1 ovarian = system: IGROV1 ovarian
NCI-H23 lung = system: NCI-H23 lung
SK-MEL-2 melanoma = system: SK-MEL-2 melanoma
HOP-92 NSCLC = system: HOP-92 NSCLC
OVCAR-3 ovarian = system: OVCAR-3 ovarian
HCC-2998 colon = system: HCC-2998 colon
MDA-MB-468 breast = system: MDA-MB-468 breast
UACC-257 melanoma = system: UACC-257 melanoma
SF-295 CNS = system: SF-295 CNS
LOX IMVI melanoma = system: LOX IMVI melanoma
RXF 393 renal = system: RXF 393 renal
SK-MEL-28 melanoma = system: SK-MEL-28 melanoma
SR leukemia = system: SR leukemia
DU-145 prostate = system: DU-145 prostate
HOP-62 NSCLC = system: HOP-62 NSCLC
SK-OV-3 ovarian = system: SK-OV-3 ovarian
A498 renal = system: A498 renal
MDA-MB-231 breast = system: MDA-MB-231 breast
SW-620 colon = system: SW-620 colon
HCT-116 colon = system: HCT-116 colon
PC-3 prostate = system: PC-3 prostate
SNB-19 CNS = system: SNB-19 CNS
MDA-MB-435 = system: MDA-MB-435
KM12 colon = system: KM12 colon
U251 CNS = system: U251 CNS
T-47D breast = system: T-47D breast
SF-268 CNS = system: SF-268 CNS
K-562 leukemia = system: K-562 leukemia
OVCAR-8 ovarian = system: OVCAR-8 ovarian
NCI/ADR-RES ovarian = system: NCI/ADR-RES ovarian
UO-31 renal = system: UO-31 renal
EKVX NSCLC = system: EKVX NSCLC
MALME-3M melanoma = system: MALME-3M melanoma
NCI-H226 lung = system: NCI-H226 lung
RPMI-8226 leukemia = system: RPMI-8226 leukemia
M14 melanoma = system: M14 melanoma
BT-549 breast = system: BT-549 breast
SF-539 CNS = system: SF-539 CNS
NCI-H460 lung = system: NCI-H460 lung
NCI-H522 lung = system: NCI-H522 lung
MOLT-4 leukemia = system: MOLT-4 leukemia
CCRF-CEM leukemia = system: CCRF-CEM leukemia

## CN1C(=O)N(C)C2SC(N/N=C/c3cccs3)=NC21 (centres undefined)
HS 578T breast
  GI50: 2.63 µM
  TGI: 9.74 µM
UACC-62 melanoma
  GI50: 3.69 µM
  TGI: > 100 µM
HCT-15 colon
  GI50: 3.92 µM
  TGI: > 100 µM
TK-10 renal
  GI50: > 100 µM
  TGI: > 100 µM
OVCAR-4 ovarian
  GI50: > 100 µM
  TGI: > 100 µM
SN12C renal
  GI50: > 100 µM
  TGI: > 100 µM
SK-MEL-5 melanoma
  GI50: 2.87 µM
  TGI: > 100 µM
MCF7 breast
  GI50: 3.98 µM
  TGI: > 100 µM
ACHN renal
  GI50: 12 µM
  TGI: > 100 µM
786-0 renal
  GI50: 14.3 µM
  TGI: > 100 µM
OVCAR-5 ovarian
  GI50: 6.45 µM
  TGI: 86.2 µM
SNB-75 CNS
  GI50: 1.66 µM
  TGI: 7.61 µM
COLO 205 colon
  GI50: 4.47 µM
  TGI: 24.1 µM
A549 NSCLC
  GI50: 9.64 µM
  TGI: > 100 µM
HL-60(TB) leukemia
  GI50: 2.39 µM
  TGI: 7.36 µM
HT29 colon
  GI50: 3.03 µM
  TGI: 11.5 µM
CAKI-1 renal
  GI50: 4.12 µM
  TGI: > 100 µM
IGROV1 ovarian
  GI50: 5.58 µM
  TGI: > 100 µM
NCI-H23 lung
  GI50: 17.7 µM
  TGI: > 100 µM
SK-MEL-2 melanoma
  GI50: 2.5 µM
  TGI: 7.27 µM
HOP-92 NSCLC
  GI50: > 100 µM
  TGI: > 100 µM
OVCAR-3 ovarian
  GI50: 3.43 µM
  TGI: 30.8 µM
HCC-2998 colon
  GI50: 8.21 µM
  TGI: 71.9 µM
MDA-MB-468 breast
  GI50: 1.89 µM
  TGI: 5.47 µM
UACC-257 melanoma
  GI50: > 100 µM
  TGI: > 100 µM
SF-295 CNS
  GI50: 3.92 µM
  TGI: > 100 µM
LOX IMVI melanoma
  GI50: 5.26 µM
  TGI: > 100 µM
RXF 393 renal
  GI50: 2.09 µM
  TGI: 17.6 µM
SK-MEL-28 melanoma
  GI50: 6.38 µM
  TGI: > 100 µM
SR leukemia
  GI50: 2.47 µM
  TGI: > 100 µM
DU-145 prostate
  GI50: 30 µM
  TGI: > 100 µM
HOP-62 NSCLC
  GI50: 7.45 µM
  TGI: > 100 µM
SK-OV-3 ovarian
  GI50: 7.74 µM
  TGI: 92 µM
A498 renal
  GI50: 22.7 µM
  TGI: > 100 µM
MDA-MB-231 breast
  GI50: 4.89 µM
  TGI: 88.3 µM
SW-620 colon
  GI50: 3.68 µM
  TGI: > 100 µM
HCT-116 colon
  GI50: 3.98 µM
  TGI: > 100 µM
PC-3 prostate
  GI50: 6.77 µM
  TGI: > 100 µM
SNB-19 CNS
  GI50: 11.4 µM
  TGI: > 100 µM
MDA-MB-435
  GI50: 1.58 µM
  TGI: 4.18 µM
KM12 colon
  GI50: 4.97 µM
  TGI: > 100 µM
U251 CNS
  GI50: 4.46 µM
  TGI: > 100 µM
T-47D breast
  GI50: 4.56 µM
  TGI: > 100 µM
SF-268 CNS
  GI50: 14.3 µM
  TGI: > 100 µM
K-562 leukemia
  GI50: 2.96 µM
  TGI: > 100 µM
OVCAR-8 ovarian
  GI50: 14.5 µM
  TGI: > 100 µM
NCI/ADR-RES ovarian
  GI50: 3.91 µM
  TGI: 38.2 µM
UO-31 renal
  GI50: 9.9 µM
  TGI: > 100 µM
EKVX NSCLC
  GI50: 7.93 µM
  TGI: > 100 µM
MALME-3M melanoma
  GI50: 3.83 µM
  TGI: > 100 µM
NCI-H226 lung
  GI50: 7.53 µM
  TGI: > 100 µM
RPMI-8226 leukemia
  GI50: 9.1 µM
  TGI: > 100 µM
M14 melanoma
  GI50: 3.32 µM
  TGI: > 100 µM
BT-549 breast
  GI50: 3.61 µM
  TGI: > 100 µM
SF-539 CNS
  GI50: 3.42 µM
  TGI: 16.9 µM
NCI-H460 lung
  GI50: 3.98 µM
  TGI: > 100 µM
NCI-H522 lung
  GI50: 2.74 µM
  TGI: 10.4 µM
MOLT-4 leukemia
  GI50: 4.26 µM
  TGI: > 100 µM
CCRF-CEM leukemia
  GI50: 3.96 µM
  TGI: > 100 µM

## CCCS(=O)(=O)c1oc(-c2ccc(F)cc2)nc1S(=O)(=O)c1ccc(F)cc1
HS 578T breast
  GI50: 2.33 µM
  TGI: 7.43 µM
UACC-62 melanoma
  GI50: 1.68 µM
  TGI: 3.11 µM
HCT-15 colon
  GI50: 1.22 µM
  TGI: 2.73 µM
TK-10 renal
  GI50: 1.88 µM
  TGI: 3.35 µM
OVCAR-4 ovarian
  GI50: 1.86 µM
  TGI: 4.04 µM
SN12C renal
  GI50: 2.62 µM
  TGI: 9.51 µM
SK-MEL-5 melanoma
  GI50: 3.32 µM
  TGI: 12 µM
MCF7 breast
  GI50: 1.3 µM
  TGI: 3.08 µM
ACHN renal
  GI50: 1.61 µM
  TGI: 2.96 µM
786-0 renal
  GI50: 1.6 µM
  TGI: 3.1 µM
OVCAR-5 ovarian
  GI50: 3.48 µM
  TGI: 13.7 µM
SNB-75 CNS
  GI50: 4.23 µM
  TGI: 18.4 µM
A549 NSCLC
  GI50: 13.3 µM
  TGI: 30.6 µM
HL-60(TB) leukemia
  GI50: 2.17 µM
  TGI: > 100 µM
HT29 colon
  GI50: 2.06 µM
  TGI: 4.9 µM
CAKI-1 renal
  GI50: 1.43 µM
  TGI: 2.76 µM
IGROV1 ovarian
  GI50: 1.84 µM
  TGI: 3.84 µM
NCI-H23 lung
  GI50: 1.9 µM
  TGI: 4.22 µM
SK-MEL-2 melanoma
  GI50: 10.4 µM
  TGI: 22.7 µM
HOP-92 NSCLC
  GI50: 1.8 µM
  TGI: 4.08 µM
OVCAR-3 ovarian
  GI50: 1.35 µM
  TGI: 2.77 µM
HCC-2998 colon
  GI50: 4.05 µM
  TGI: 15.9 µM
MDA-MB-468 breast
  GI50: 1.29 µM
  TGI: 2.89 µM
UACC-257 melanoma
  GI50: 1.62 µM
  TGI: 3.13 µM
SF-295 CNS
  GI50: 12.6 µM
  TGI: 25.5 µM
LOX IMVI melanoma
  GI50: 1.28 µM
  TGI: 2.6 µM
RXF 393 renal
  GI50: 1.1 µM
  TGI: 2.44 µM
SK-MEL-28 melanoma
  GI50: 1.74 µM
  TGI: 3.17 µM
SR leukemia
  GI50: 1.6 µM
  TGI: > 100 µM
DU-145 prostate
  GI50: 1.59 µM
  TGI: 2.96 µM
HOP-62 NSCLC
  GI50: 15.7 µM
  TGI: 31.1 µM
SK-OV-3 ovarian
  GI50: 16.3 µM
  TGI: 30.9 µM
A498 renal
  GI50: 17.2 µM
  TGI: 31 µM
MDA-MB-231 breast
  GI50: 1.65 µM
  TGI: 3.04 µM
SW-620 colon
  GI50: 0.685 µM
  TGI: 2.17 µM
HCT-116 colon
  GI50: 1.6 µM
  TGI: 3.49 µM
PC-3 prostate
  GI50: 3.51 µM
  TGI: 16.7 µM
SNB-19 CNS
  GI50: 15 µM
  TGI: 28.2 µM
MDA-MB-435
  GI50: 1.45 µM
  TGI: 2.98 µM
KM12 colon
  GI50: 14.5 µM
  TGI: 31 µM
U251 CNS
  GI50: 16.4 µM
  TGI: 30.6 µM
T-47D breast
  GI50: 1.83 µM
  TGI: 4.2 µM
SF-268 CNS
  GI50: 3.18 µM
  TGI: 14.7 µM
K-562 leukemia
  GI50: 1.64 µM
  TGI: > 100 µM
OVCAR-8 ovarian
  GI50: 2.12 µM
  TGI: 4.99 µM
NCI/ADR-RES ovarian
  GI50: 2.36 µM
  TGI: 6.35 µM
UO-31 renal
  GI50: 1.46 µM
  TGI: 2.78 µM
EKVX NSCLC
  GI50: 1.62 µM
  TGI: 3.27 µM
MALME-3M melanoma
  GI50: 1.49 µM
  TGI: 2.83 µM
NCI-H226 lung
  GI50: 13 µM
  TGI: 34.8 µM
RPMI-8226 leukemia
  GI50: 2.22 µM
  TGI: 7.44 µM
M14 melanoma
  GI50: 1.68 µM
  TGI: 3.56 µM
BT-549 breast
  GI50: 1.98 µM
  TGI: 3.57 µM
SF-539 CNS
  GI50: 1.55 µM
  TGI: 2.89 µM
NCI-H460 lung
  GI50: 4.46 µM
  TGI: 19.4 µM
NCI-H522 lung
  GI50: 1.19 µM
  TGI: 2.64 µM
MOLT-4 leukemia
  GI50: 1.14 µM
  TGI: > 100 µM
CCRF-CEM leukemia
  GI50: 0.298 µM
  TGI: 1.09 µM
